Measurements taken from the Bradley open melting point set (2014).
Where “and” joins values, the source holds several entries; their conditions need not be identical. Identical values can stand only once.

Row | SMILES | melting point
1 | OC[C@H]1O[C@@H](O)[C@H](O)[C@H](O)[C@@H]1O [beta-D-allose] | 145 °C
2 | CC1=C(/C=C/C(C)=C/C=C/C(C)=C/C=C/C=C(C)/C=C/C=C(C)/C=C/C2=C(C)CCCC2(C)C)C(C)(C)CCC1 [beta-carotene] | 180 °C
3 | C[C@]12CC[C@@H]3c4ccc(O)cc4CC[C@H]3[C@@H]1CC[C@@H]2O [beta-estradiol] | 177 °C
4 | C[C@H]1C[C@H]2[C@@H]3CCC4=CC(=O)C=C[C@]4(C)[C@@]3(F)[C@@H](O)C[C@]2(C)[C@@]1(O)C(=O)CO [betamethasone] | 232 °C
5 | C1CCC(C2CCCCC2)CC1 [bicyclohexyl] | 4 °C
6 | Nc1ccc(-c2ccc(N)cc2N)c(N)c1 [biphenyl-2,2',4,4'-tetramine] | 158 °C
7 | Clc1ccc(SSc2ccc(Cl)cc2)cc1 [bis(4-chlorophenyl) disulfide] | 73 °C
8 | O=S(=O)(c1ccc(Cl)cc1)c1ccc(Cl)cc1 [bis(4-chlorophenyl) sulfone] | 149 °C
9 | CC(C)(C)OC(=O)NCC(=O)O [boc-glycine] | 88.5 °C
10 | CC1(C)[C@H]2CC[C@]1(C)[C@H](O)C2 [borneol] | 207 °C
11 | CC1(C)[C@@H]2CC[C@@]1(C)[C@@H](O)C2 [borneol] | 207 °C
12 | CS(=O)(=O)OCCCCOS(C)(=O)=O [busulfan] | 116 °C
13 | CCC(C)C1(CC)C(=O)NC(=O)NC1=O (stereo not given) [butabarbital] | 166 °C
14 | C=CCC1(CC(C)C)C(=O)NC(=O)NC1=O [butalbital] [listing 1 of 2 here] | 138 °C
15 | C=CCC1(CC(C)C)C(=O)NC(=O)NC1=O [butalbital] [listing 2 of 2 here] | 140 °C
16 | CCCC [butane] | -138 °C and -137 °C
17 | CCCC(N)=O [butyramide] | 115 °C
18 | COc1cc(C(=O)NCCCCCC(=O)O)cc(OC)c1OC [capobenicacid] | 121 °C
19 | CNC(=O)Oc1cccc2ccccc12 [carbaryl] | 142 °C
20 | NNC(=O)NN [carbohydrazide] | 156 °C
21 | S=C=S [carbon disulfide] | -112 °C
22 | Cc1nnc(SCC2=C(C(=O)O)N3C(=O)[C@@H](NC(=O)Cn4cnnn4)[C@H]3SC2)s1 [cefazolin] | 190 °C
23 | Cc1ccc(-c2cc(C(F)(F)F)nn2-c2ccc(S(N)(=O)=O)cc2)cc1 [celecoxib] | 158 °C
24 | Nc1ncnc(Nc2ccc(Cl)cc2)n1 [chlorazanil] | 233 °C
25 | Clc1ccccc1 [chlorobenzene] | -45 °C
26 | ClC1CCCCC1 [chlorocyclohexane] | -44 °C

The remaining lines, values ahead:

Row | melting point | SMILES
27 | 55 °C | c1ccc(CCc2ccccc2)cc1 [bibenzyl] [listing 1 of 2 here]
28 | 52 °C | c1ccc(CCc2ccccc2)cc1 [bibenzyl] [listing 2 of 2 here]
29 | 209 °C | OB(O)c1cccc(-c2ccccc2)c1 [biphenyl-3-boronic acid]
30 | 145 °C | COc1cc(C(=O)c2ccc(-c3ccccc3)cc2)c([N+](=O)[O-])cc1OC [biphenyl-4-yl(4,5-dimethoxy-2-nitrophenyl)methanone]
31 | 110 °C | N#CC(c1ccccc1[N+](=O)[O-])c1ccccc1[N+](=O)[O-] [bis(2-nitrophenyl)acetonitrile]
32 | 230 °C | CCCCNc1cc(C(=O)O)cc(S(N)(=O)=O)c1Oc1ccccc1 [bumetanide]
33 | 69 °C | CCCCOC(=O)c1ccc(O)cc1 [butyl 4-hydroxybenzoate]
34 | 69 °C | CCCCOC(=O)c1ccc(O)cc1 [butyl p-hydroxybenzoate]
35 | -12 °C | CCCCOC(=O)c1ccccc1 [butyl_benzoate]
36 | 68.5 °C (2×) and 69 °C | CCCCOC(=O)c1ccc(O)cc1 [butylparaben]
37 | 190 °C | NC(=O)N1c2ccccc2C=Cc2ccccc21 [carbamazepine]
38 | 190 °C and 192 °C (2×) | NC(=O)N1c2ccccc2C=Cc2ccccc21 [carbazepine]
39 | 57 °C | CC(=O)Oc1ccccc1O [catechol_monoacetate_(ortho)]
40 | 151 °C | O=C(N[C@H](CO)[C@H](O)c1ccc([N+](=O)[O-])cc1)C(Cl)Cl [chloramphenicol]
